This is an account of results in PubChem BioAssay AID330 (DTP/NCI, 2004).

For this test, the system named is P388 leukemia ip, CD2F1 mice, survival T/C. The test can be described thus: NCI In Vivo Anticancer Drug Screen. Data for tumor model P388 Leukemia (intraperitoneal) in CD2F1 (CDF1) mice. The note with it: endpoint: median survival time, higher = longer survival. The gist of the method:
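Mice carrying the transplanted tumor received test compound or vehicle. Survival was recorded in each group, and the value is the treated-group measurement divided by that of the vehicle-treated control group.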

The mark [1] stands for this setting: dose: 60.0 mg/kg/injection, schedule: Q01DX005 (ip), vehicle: saline.
Where [2] appears, read: dose: 120.0 mg/kg/injection, schedule: Q01DX005 (ip), vehicle: saline.
Setting [3] is: dose: 240.0 mg/kg/injection, schedule: Q01DX005 (ip), vehicle: saline.
Setting [4] is: dose: 100.0 mg/kg/injection, schedule: Q01DX009 (ip), vehicle: saline with Tween-80.
Setting [5] is: dose: 200.0 mg/kg/injection, schedule: Q01DX009 (ip), vehicle: saline with Tween-80.
The mark [6] stands for this setting: dose: 50.0 mg/kg/injection, schedule: Q01DX009 (ip), vehicle: saline.
[7] abbreviates: dose: 100.0 mg/kg/injection, schedule: Q01DX009 (ip), vehicle: saline.
Where [8] appears, read: dose: 60.0 mg/kg/injection, schedule: Q01DX005 (ip), vehicle: saline with Tween-80.
The mark [9] stands for this setting: dose: 120.0 mg/kg/injection, schedule: Q01DX005 (ip), vehicle: saline with Tween-80.
[10] abbreviates: dose: 50.0 mg/kg/injection, schedule: Q01DX009 (ip), vehicle: saline with Tween-80.
Setting [11] is: dose: 25.0 mg/kg/injection, schedule: Q04DX002 (ip), vehicle: saline.
Setting [12] is: dose: 50.0 mg/kg/injection, schedule: Q04DX002 (ip), vehicle: saline.
The mark [13] stands for this setting: dose: 100.0 mg/kg/injection, schedule: Q04DX002 (ip), vehicle: saline.
Setting [14] is: dose: 50.0 mg/kg/injection, schedule: Q01DX005 (ip), vehicle: Klucel (hydroxypropylcellulose) (HPC).
The mark [15] stands for this setting: dose: 100.0 mg/kg/injection, schedule: Q01DX005 (ip), vehicle: Klucel (hydroxypropylcellulose) (HPC).
[16] abbreviates: dose: 200.0 mg/kg/injection, schedule: Q01DX005 (ip), vehicle: Klucel (hydroxypropylcellulose) (HPC).

Molecules are shown by their SMILES. Where “and” joins values, the source holds several entries; their conditions need not be identical. Equal values may be shown once. Inconclusive results and toxic doses are left out.

Regarding `CCCCCc1nc2c(c3c1CCCC3)CCCC2`, the T/C reads like this: under setting [1], 98 % of control; under setting [2], 106 % of control; under setting [3], 107 % of control.
Consider `Cc1ccc(S(=O)(=O)O/N=C2/CCC(C)(C)c3ccccc32)cc1`, for which the T/C by setting is: under setting [4], 90 % of control; under setting [5], 100 % of control; (dose: 400.0 mg/kg/injection, schedule: Q01DX009 (ip), vehicle: saline with Tween-80) 90 % of control.
Regarding `C[N+](C)(C)N`, the T/C is 102 % of control (dose: 25.0 mg/kg/injection, schedule: Q01DX009 (ip), vehicle: saline); 100 % of control under setting [6]; 100 % of control under setting [7].
Consider `CCC(O)(CC(=O)O)c1ccccc1` (stereo not drawn), for which the T/C reads like this: under setting [4], 104 % of control; under setting [5], 95 % of control.
Consider `COc1cc(C2c3c(oc4ccccc4c3=O)Oc3oc4ccccc4c(=O)c32)cc(OC)c1OC`, for which the T/C is, setting by setting: under setting [8], 86 % of control; under setting [9], 87 % of control.
In the case of `C/C(=N\N)c1cnc(NN)nc1C`, the T/C is, setting by setting: (dose: 7.5 mg/kg/injection, schedule: Q01DX005 (ip), vehicle: saline) 106 % of control; (dose: 15.0 mg/kg/injection, schedule: Q01DX005 (ip), vehicle: saline) 103 % of control.
As to `CC(/C=C/c1ccccc1)=N\NC(=O)C(N)=O`, the T/C (dose: 12.5 mg/kg/injection, schedule: Q01DX009 (ip), vehicle: saline with Tween-80) was 97 % of control; the T/C (dose: 25.0 mg/kg/injection, schedule: Q01DX009 (ip), vehicle: saline with Tween-80) was 97 % of control; the T/C under setting [10] is 96 % of control; the T/C under setting [6] is 100 % of control; the T/C under setting [7] was 91 % of control; the T/C (dose: 200.0 mg/kg/injection, schedule: Q01DX009 (ip), vehicle: saline) was 98 % of control.
Take `COC1OCN(Cc2ccccc2)CC1(C)C` (stereo not drawn): the T/C is, setting by setting: under setting [10], 108 % of control; under setting [4], 120 % of control.
For `[Br][Rh][Br].[NH-]c1nc2c(ccc3ccccc32)s1.[NH-]c1nc2c(ccc3ccccc32)s1.[NH-]c1nc2c(ccc3ccccc32)s1.[NH-]c1nc2c(ccc3ccccc32)s1`, the T/C (dose: 100.0 mg/kg/injection, schedule: Q04DX003 (ip), vehicle: saline) was 109 % of control; the T/C (dose: 200.0 mg/kg/injection, schedule: Q04DX003 (ip), vehicle: saline) was 103 % of control; the T/C (dose: 400.0 mg/kg/injection, schedule: Q04DX003 (ip), vehicle: saline) is 98 % of control.
As for `Cc1cc(O)c2c(c1O)C(=O)c1cc(O)cc(O)c1C2=O`, the T/C is 104 % of control (dose: 6.25 mg/kg/injection, schedule: Q01DX005 (ip), vehicle: saline + alcohol); 101 % of control (dose: 12.5 mg/kg/injection, schedule: Q01DX005 (ip), vehicle: saline + alcohol); 99 % of control (dose: 25.0 mg/kg/injection, schedule: Q01DX005 (ip), vehicle: saline + alcohol).
For `CC(=NCc1ccccc1)/C(=N\O)C(=O)Nc1ccc(Cl)cc1`, where the note is “dose: 400.0 mg/kg/injection, schedule: Q04DX003 (ip), vehicle: saline with Tween-80”, the T/C is 96 % of control.
As for `COc1cc(Cl)ccc1NC(=O)Oc1cc(C)c(I)cc1C`, the T/C under setting [10] was 104 % of control, the T/C under setting [4] is 100 % of control and the T/C under setting [5] was 88 % of control.
In the case of `O=C1CC(c2ccc(Cl)cc2)C(c2ccc(Cl)cc2)C1=O` (stereo not drawn), the T/C is 107 % of control (dose: 6.25 mg/kg/injection, schedule: Q01DX001 (ip), vehicle: Klucel (hydroxypropylcellulose) (HPC)); 112 % of control (dose: 12.5 mg/kg/injection, schedule: Q01DX001 (ip), vehicle: Klucel (hydroxypropylcellulose) (HPC)); 106 % of control and 86 % of control (dose: 25.0 mg/kg/injection, schedule: Q01DX001 (ip), vehicle: Klucel (hydroxypropylcellulose) (HPC)); 99 % of control (dose: 100.0 mg/kg/injection, schedule: Q01DX001 (ip), vehicle: Klucel (hydroxypropylcellulose) (HPC)).
For the molecule `CC(/C=N\Nc1ccc(Cl)c(Cl)c1)=N/NC(=O)C[n+]1ccccc1`, the T/C was 108 % of control under setting [11]; 104 % of control under setting [12]; 102 % of control and 92 % of control under setting [13].
On to `COc1cccc2c1C(=O)c1c(O)c3c(c(O)c1C2=O)C[C@@](O)(C(=O)O)C[C@@H]3OC1CC(N)C(O)C(C)O1` (stereo partly drawn), for which the T/C is 88 % of control (dose: 3.13 mg/kg/injection, schedule: Q01DX009 (ip), vehicle: water); 123 % of control (dose: 6.25 mg/kg/injection, schedule: Q01DX009 (ip), vehicle: water); 114 % of control (dose: 18.75 mg/kg/injection, schedule: Q01DX001 (ip), vehicle: water); 121 % of control (dose: 37.5 mg/kg/injection, schedule: Q01DX001 (ip), vehicle: water); 155 % of control (dose: 50.0 mg/kg/injection, schedule: Q01DX009 (ip), vehicle: water); 114 % of control (dose: 75.0 mg/kg/injection, schedule: Q01DX001 (ip), vehicle: water). Besides, the T/C was 158 % of control (dose: 100.0 mg/kg/injection, schedule: Q01DX009 (ip), vehicle: water); 122 % of control (dose: 150.0 mg/kg/injection, schedule: Q01DX001 (ip), vehicle: water); 123 % of control (dose: 300.0 mg/kg/injection, schedule: Q01DX001 (ip), vehicle: water).
Take `O=C(NN=c1c(=O)c2ccccc2c1=O)c1ccncc1`: the T/C under setting [8] was 112 % of control; the T/C under setting [9] is 119 % of control; the T/C (dose: 240.0 mg/kg/injection, schedule: Q01DX005 (ip), vehicle: saline with Tween-80) is 119 % of control.
With `Cc1cc(=O)c(C(=O)NC=O)c(C)o1`, the T/C was 99 % of control under setting [14], 101 % of control under setting [15] and 117 % of control under setting [16].
`N#CNC(=S)SCC(N)=O`: the T/C under setting [14] is 100 % of control, the T/C under setting [15] was 100 % of control and the T/C under setting [16] was 102 % of control.
With `CC1CCCN2C(=O)CN(N3CCOCC3)CC(=O)N12` (stereo not drawn), the T/C is 100 % of control (dose: 25.0 mg/kg/injection, schedule: Q04DX002 (ip), vehicle: saline with Tween-80); 95 % of control under setting [11]; 94 % of control (dose: 50.0 mg/kg/injection, schedule: Q04DX002 (ip), vehicle: saline with Tween-80); 95 % of control under setting [12]; 99 % of control (dose: 100.0 mg/kg/injection, schedule: Q04DX002 (ip), vehicle: saline with Tween-80); 102 % of control under setting [13]. Moreover, the T/C is 94 % of control (dose: 200.0 mg/kg/injection, schedule: Q04DX002 (ip), vehicle: saline with Tween-80) and 94 % of control (dose: 200.0 mg/kg/injection, schedule: Q04DX002 (ip), vehicle: saline).
For `O=C([O-])CC(=O)[O-].[Cu+2].[OH3+].[OH3+]`, for the setting “dose: 15.0 mg/kg/injection, schedule: Q01DX005 (ip), vehicle: Klucel (hydroxypropylcellulose) (HPC)”, the T/C is 99 % of control.
Take `CC(=O)NC[Si](C)(C)C`: the T/C runs as follows: under setting [1], 93 % of control; under setting [2], 96 % of control; under setting [3], 103 % of control.
Consider `O=C1c2ccccc2C(=O)c2c1cc1cccccc2-1`, for which the T/C is 99 % of control (dose: 3.13 mg/kg/injection, schedule: Q01DX005 (ip), vehicle: saline with Tween-80); 97 % of control (dose: 6.25 mg/kg/injection, schedule: Q01DX005 (ip), vehicle: saline with Tween-80); 90 % of control and 91 % of control (dose: 12.5 mg/kg/injection, schedule: Q01DX005 (ip), vehicle: saline with Tween-80); 89 % of control (dose: 50.0 mg/kg/injection, schedule: Q01DX005 (ip), vehicle: saline with Tween-80); 95 % of control (dose: 200.0 mg/kg/injection, schedule: Q01DX005 (ip), vehicle: saline with Tween-80).
For the molecule `COC(=O)NC(=S)Nc1nncs1`, the T/C (dose: 25.0 mg/kg/injection, schedule: Q04DX003 (ip), vehicle: saline with Tween-80) is 101 % of control; the T/C (dose: 50.0 mg/kg/injection, schedule: Q04DX003 (ip), vehicle: saline with Tween-80) was 105 % of control; the T/C (dose: 100.0 mg/kg/injection, schedule: Q04DX003 (ip), vehicle: saline with Tween-80) was 105 % of control.
